Measurements reported in paper PMC12070314, “Efficient Small-Molecule Reversal Agents for Anticoagulant Fondaparinux” (ACS Pharmacology & Translational Science, 2025).

How the values were obtained:
[1] = tested on: FXa/ATIII inhibited by fondaparinux; assay: In vitro FXa/ATIII enzymatic assay of anti-fondaparinux activity; type: biochemical, human; details: for Percent recovery of peptide substrate hydrolysis: [fond] = [antidote] = 15 μM, three reaction times
Procedure: The activity of two spermine derivatives, 3AC and 3FF, as fond antidotes was evaluated with an in vitro enzymatic assay related to blood coagulation, as previously described (Figure A). , In brief, fond promotes a conformational change in ATIII toward an efficient inhibitor of FXa. Addition of a ligand of fond hinders the inhibitory action of ATIII restoring the FXa hydrolytic activity, which has been used as an indirect measurement of antifond behavior.
Recombinant antithrombin III and coagulation factor Xa were obtained from two different kits, Berichrom Heparin test (SIEMENS) and Kinetichrome Anti-Xa Heparin kit (Iduron). Methods for both kits are similar, but not identical. Differences will be spotted by method A (SIEMENS) and method B (Iduron). Following the manufacturer’s instructions, stock solutions were prepared as follows: human antithrombin III (1 IU/mL) and factor Xa reagent (0.4 μg/mL, human plasma fraction with additives Tris, sodium chloride, and EDTA). Chromogenic substrate specific for factor Xa was dissolved at 4 mM concentration (A: Z-D-Leu-Gly-Arg-ANBA-methyl amide, and B: Z-D-Arg-Gly-Arg-pNA). Additionally, either 4-nitroaniline (A) or N-Boc-4-nitroaniline (B) was added to the substrate solution at a concentration of 1.6 mM and used as an internal standard to quantify the hydrolysis of the chromogenic substrate. All compounds were dissolved in Milli-Q water at the desired stock concentrations prior to start of the assays and kept at 4 °C. Various concentrations of the ligand, fondaparinux (up to 15 μM) or LMWH (0.1 to 10 μM), human antithrombin III solution (2 μL), and factor Xa reagent solution (35 μL) were consecutively added to an Eppendorf vial and brought to a total volume of 145 μL. Then, 20 μL of reagent substrate solution was added to start the experiment, and the mixture was vigorously shaken at 25 °C. 20 μL aliquots were taken at 5/10/15/20/30/50/80/120 minutes, diluted with 40 μL of acetic acid (20% v/v), and injected into the analytical HPLC system. The gradient ranged from 5% of ACN (0.1% formic acid) in water (0.1% formic acid) to 100% of ACN in 24 min using a 15 × 4.6 mm KROMAPHASE C18 5.0 μm column. In A: the retention time of cleaved chromophore was 9.1 min, retention time of chromogenic substrate was 13.9 min, and retention time of 4-nitroaniline was 15.4 min. In B: the retention time of chromogenic substrate was 11.0 min, retention time of cleaved chromophore was 15.2 min, and retention time of N-Boc-4-nitroaniline was 21.7 min. FXa/ATIII activity was represented as the percent of hydrolysis, which was calculated from the normalized area of the cleaved peptide at 405 nm at each corresponding time point. The experiment carried out in the absence of heparinoid was considered as the maximum of activity, while the experiment with heparinoid and no ligand was considered as negative control (maximum inhibition of FXa by heparinoid). The concentration of heparinoid was selected for the measurement to render significant inhibition within experimental time while allowing the reaction to proceed.

[2] = tested on: freshly extracted mouse blood; assay: Naked-eye ex vivo blood coagulation assay; type: cell-based; details: for Reversal of fond anticoagulant effect (clot formation by vial inversion): 100 μM fond + 200 μM antidote, 5 min
Procedure: Considering the results obtained in the in vitro assays, we aimed to test our molecules in a more relevant and challenging environment. To this aim, we performed naked-eye ex vivo coagulation assays (Figure ). Freshly extracted mouse blood samples were treated with fond (100 μM final concentration) in the absence and in the presence of different antidotes (two molar equivalents). Blood coagulation was visually inspected by the simple inversion of the vials. For a fair comparison between different series, all of the experiments were done in parallel with the corresponding control samples of untreated mouse blood (labeled “0” in Figure ). […] The effect of antidotes alone on blood coagulation was also tested (Figure B), showing that neither of the three small molecules appreciably changed the coagulation properties.
This naked-eye coagulation test is an adaptation of the whole blood clotting time assay. , Freshly collected mouse blood was directly used without further treatment. 300 μL aliquots were dispensed in Eppendorf tubes, to which fondaparinux (100 μM), and/or potential antidotes (3AC, 3FF, ciraparantag, or protamine, 200 μM) were added, and a picture was taken after 5 min. Clot formation was verified by inverting the Eppendorf vials.

Compound	Percent recovery of peptide substrate hydrolysis [1]	Reversal of fond anticoagulant effect (clot formation by vial inversion) [2]	Effect of antidote alone on blood coagulation ([2]; 200 μM antidote, no fond)	Effect on FXa hydrolytic activity ([1]; fond 15 μM, FXa/ATIII, no antidote)	Effect on blood coagulation (vial inversion) ([2]; fond 100 μM alone)
protamine	practically no in vitro activity against fond	fails to be an antidote of fond	acts as an anticoagulant itself	–	–
Oc1ccccc1CNCCCNCCCCNCCCNCc1ccccc1O [Compound 3AA]	lower potency as antidotes	–	–	–	–
N=C(N)NCCC[C@H](N)C(=O)NCCCN1CCN(CCCNC(=O)[C@@H](N)CCCNC(=N)N)CC1 [cir, ciraparantag, reference compound]	performs similarly to the spermine derivative ligand (3AA)	good antidote, though qualitatively less effective than 3AC/3FF	–	–	–
COc1ccccc1CNCCCNCCCCNCCCNCc1ccccc1OC [Compound 3BB]	lower potency as antidotes	–	–	–	–
CO[C@H]1O[C@H](COS(=O)(=O)O)[C@@H](O[C@@H]2O[C@@H](C(=O)O)[C@@H](O[C@H]3O[C@H](COS(=O)(=O)O)[C@@H](O[C@@H]4O[C@H](C(=O)O)[C@@H](O[C@H]5O[C@H](COS(=O)(=O)O)[C@@H](O)[C@H](O)[C@H]5NS(=O)(=O)O)[C@H](O)[C@H]4O)[C@H](OS(=O)(=O)O)[C@H]3NS(=O)(=O)O)[C@H](O)[C@H]2OS(=O)(=O)O)[C@H](O)[C@H]1NS(=O)(=O)O [fond, Fondaparinux]	–	–	–	clearly reduces the hydrolytic activity	anticoagulant effect
